How the values were obtained:
[1] = system: CAM; conditions: CAM test in the presence of corticosteroids, Lapierre et al. Table III; cited from earlier work
[2] = system: chick embryo chorioallantoic membrane; assay: Angiostatic activity on CAM model (gelatin sponge); type: in vivo
Experimental: For the study of angiogenesis the model used was the chick embryo chorioallantoic membrane model (Ribatti e al. Int. J. Dev. Biol., 40, 1189 (1996)).
300 embryonated hens' eggs were incubated at 37° C. in constant humidity conditions. On the 3rd day of incubation, after aspirating 2-3 ml of albumen from the acute pole of the egg so as to detach the CAM from the shell, a window was cut with scissors in the shell. The vessels underlying the CAM were thus exposed. The window was closed with a transparent glass panel and the eggs were put back into the incubator. On the 8th day of incubation, in sterile conditions, the CAMs were treated according to the protocol described below using a technique developed recently (Ribatti et al. J. Vasc. Res. 34, 455 (1997)), which involves the use of sterile gelatin sponges measuring 1 mm^2 in size. […] The sponges were first rested on the surface of the CAM, and then 3 μl of solution of the test substance were pipetted onto the surface of the sponge. The CAMs were examined daily using a Zeiss SR stereomicroscope equipped with a photographic device. The experiments were discontinued on the 12th day of incubation, when an overall assessment of the angiogenic activity of the molecules was carried out, expressed as percentage inhibition in relation to the number of experiments initiated and completed (Table 9). In addition, for compound ST1514, assayed at the concentration of 100 μg/embryo, a macroscopic quantitative evaluation of the angiostatic activity was also carried out according to the technique proposed by Brooks et al. (Science, 264, 569, (1994)), counting the number of vessels surrounding the sponge. The number of vessels was compared with that of the control sponges treated with PBS (vehicle of the test compound) and with FGF-2 (positive control).

[3] = system: L6-WT1 cells (rat myoblasts transfected with FGFR-1); assay: Inhibition of DNA synthesis in L6 cells transfected with FGFR-1; type: cell-based; conditions: test compound 100 μ/ml
Experimental: L6-WT1 cells (rat myoblasts transfected with FGFR-1) were seeded at a density of 25,000 cells/cm^2 in 48-well plates in DMEM+ 10% FCS. After 24 hours the cells were washed with serum-free medium and incubated for 48 hours with DMEM+ 0.5% FCS. The cells were then incubated for 16 hours with FGF-2 at the concentrations of 15 and 30 ng/ml in the presence or absence of the test compounds (all at 100 μ/ml). At the end of the incubation 3H-thymidine (0.25 μCi/well) was added without changing the medium. After 6 hours, precipitable TCA was measured. Each experimental point is the mean of 3 determinations.

[4] = background table, structure/antimetastatic activity; cited from earlier work
[5] = system: BAEC cells; assay: Test of cell proliferation in BAEC; type: cell-based, bovine; conditions: 30 ng/ml FGF-2, 3 days, crystal-violet
Experimental: BAEC cells at the 7th pass were seeded at a density of 2,500 cells/cm^2 in 96-well in EBM medium without bovine brain extract and hEGF. To this medium were added 30 ng/ml of FGF-2 and each of the test compounds at 5 concentrations ranging from 10 ng/ml to 100 μg/ml. After 3 days the cells were fixed and stained with crystal-violet and the optical density was determined by means of an ELISA microplate reader. Each experimental point was done in quadruplicate and the ID50 was calculated.

[6] = biological target: T1, FGFR/FGF2/HSPG ternary complex (Homo sapiens, UniProt P09038); assay: Inhibition of FGF2-mediated intercellular adhesion of CHO-K1 and CHO-745flg cells; type: cell-based, Chinese hamsters
T1 construct: FGFR-1 made by transfected HSPG-deficient CHO 745/flg cells; HSPGs on fixed CHO-K1 cells
Source text: To this end an in-vitro model was designed capable of assessing the interference of the various different heparin derivatives with bFGF binding to its own receptor.
These latter cells were stably transfected with cDNA for green fluorescent protein and for this reason could be observed under the fluorescence microscope with a combination of filters for the detection of green emission. In brief, the technique is based on the possibility that the two types of cells may interact (form stable bonds) only if FGF is added to the two cell types. In fact, in this case, the heparan sulphates of the CHO-745flg cells will bind to FGF, which in turn will bind to the CHO-K1 cells, establishing a bridge. The binding that occurs is detectable as a result of the green fluorescence emitted by the CHO-745flg cells.
CHO-K1 cells were seeded at a density of 90,000 cells/cm^2 in 24-well plates. After 24 hours the cells were fixed in 3% glutaraldehyde in PBS for 2 hours at 4° C. and washed with 0.1 M glycine/PBS. On the fixed monolayers CHO 745/flg cells, transfected with FGFR-1, at a density of 50,000 cells/cm^2 in DMEM containing 10 mM EDTA, 30 ng/ml FGF-2 and increasing doses of the test compounds. After 2 hours' incubation at 37° C., the adhering cells were counted under the inverted microscope. The results were expressed as percentage of the number of cells adhering compared to those measured in the absence of the test compounds.

[7] = system: Endothelial Cell; assay: Endothelial cell proliferation (Table 11); type: cell-based; conditions: Table 11, endothelial cell proliferation
[8] = system: foetal BAEC GM 7373; assay: Test of cell proliferation in foetal BAEC GM 7373; type: cell-based, bovine; conditions: GM7373, 10 ng/ml FGF-2, cell count
Experimental: GM7373 cells were seeded at a density of 70,000 cells/cm^2 in 96-well plates in MEM+ 10% FCS medium. After 24 hours, the cells were washed with serum-free medium and treated with 10 ng/ml of FGF-2 in medium containing 0.4% FCS. After 8 hours, the test compounds were added to the medium at 5 concentrations ranging from 10 ng/ml to 100 μg/ml. After a further 16 hours, the cells were trypsinised and counted in a Burker chamber. The ID50 was calculated for each compound and the results are the means of 2 experiments in triplicate.

[9] = Evaluation of heparin toxicity in Balb/c mice; type: in vivo; conditions: q2dx5
Experimental: 20 6-week-old female Balb/c mice weighing 20 g (Harlan), divided into groups by casual randomisation, were treated with heparin sodium, as a reference, and with the compound according to the present invention called ST1514. The treatment schedule was of the q2dx5 type, i.e. 5 total administrations at intervals of 2 days, administering 200 μl/mouse of 50 mg/kg/10 ml and 25 mg/kg/10 ml solutions subcutaneously.
48 hours after the last administration of the test substances a blood sample is taken for full blood count and haematological analysis.
Blood sampling: the mice are placed in a hermetically sealed box, into which is insufflated CO2 in an amount sufficient to stun the animal. Blood is then taken from the retro-orbital plexus of each animal (approximately 1 ml of blood/mouse) which is distributed in amounts of 0.4 ml of blood/mouse in Eppendorf test tubes containing 20 μl of Vister heparin (5000 U/ml) for carrying out the full blood count and haematological analysis; and the same amount of blood is distributed in other Eppendorf test tubes containing 50 μl of 3.8% sodium citrate in order to perform prothrombin time determinations. After taking the blood sample, each animal is sacrificed by cervical dislocation.
Full blood count: the appliance (Cell Analyzer 580 A, DELCON) is used according to the standard procedure described in the operating manual. The blood sample (25 μl) is taken by the dilutor and brought up to a volume of 10 ml (dil. 1:400) with isotonic solution (PLTA saline, DELCON). From this solution (called solution A), the dilutor automatically takes a sample of 100 μl and brings it up to a volume of 10 ml (dil. 1:100), thus obtaining solution B. To solution A are added 3 drops of Emosol (DELCON) for lysis of the red blood cells. This solution is used for the WBC reading. Solution B, on the other hand, is used for the RBC and platelet (PLT) readings. Each sample is read in duplicate.
None of the study treatment groups presents significant differences in the numbers of white blood cells as compared to the control group.

[10] = 50 mg/kg and 25 mg/kg subcutaneously

T1 sequence (P09038 143-288, one chain of several): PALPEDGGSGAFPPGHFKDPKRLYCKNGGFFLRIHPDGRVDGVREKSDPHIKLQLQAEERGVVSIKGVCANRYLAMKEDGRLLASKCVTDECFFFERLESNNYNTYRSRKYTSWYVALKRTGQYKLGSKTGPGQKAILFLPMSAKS

For 2-O-desulfated heparin, the “antiangiogenic activity relative to heparin (in words)” value [1] is given as “partly maintained the antiangiogenic activity of heparin”.
In the case of “FGF-2: basic fibroblast growth factor, positive control with potent angiogenic activity on the CAM”, the “N. vessels at sponge/CAM interface” value ([2]; 1 μg/embryo, positive control, macroscopic quantitative evaluation (Brooks)) is reported as 50 + 4.
In the case of Heparin, the “Incorporation of 3H-thymidine (% vs. control)” value ([3]; FGF-2 15 ng/ml) is listed as 50 % vs. control, the “Incorporation of 3H-thymidine (% vs. control)” value ([3]; FGF-2 30 ng/ml) is listed as 74 % vs. control and the “% inhibition (antimetastatic activity)” value [4] is listed as 97%. For the same substance, the “CAM (% inhibition)” value ([2]; 100 μg/embryo) was 0%, the “angiostatic activity on CAM (in words)” value ([2]; remark below Tables 9 and 10) was “no activity” and the “Inhibition (ID50) of cell proliferation” value [5] was 100 µg/mL. The “Inhibition (ID50) of intercellular adhesion” value ([6]; 30 ng/ml FGF-2, 2 hours at 37° C., 6 concentrations 1 ng/ml to 100 μg/ml) was 100, the “Cell-Cell Adh. (ID50, ng/mL)” value ([6]; Table 11, FGF2-mediated cell-cell adhesion) was 100 ng/mL and the “ID50, FGF2-mediated cell-cell adhesion test” value ([6]; text b166) was 0.1 µg/mL. For the same substance, the “Cell Prolif. (ID50, ng/mL)” value [7] was 2 000 ng/mL and the “Inhibition (ID50) of cell proliferation” value [8] was 2 µg/mL.
In the case of heparin sodium, the “platelets compared to the control group” value ([9]; 25 mg/kg subcutaneously) is reported as “significant platelet deficiency”, the “haematoma at the inoculum site” value [9, 10] is reported as “marked haematoma at the inoculum site” and the liver at autopsy [9, 10] is reported as “livers with abnormal characteristics”. For the same substance, the “red blood cells compared to the control group” value ([9]; 50 mg/kg and 25 mg/kg subcutaneously, 48 hours after last administration) was “reduction in red blood cells”.

Reference: patent US7790700B2, “Derivatives of partially desulphated glycosaminoglycans endowed with antiangiogenic activity and devoid of anticoagulating effect” (Sigma-Tau Industrie Farmaceutiche Riunite S.p.A., priority 2000, dated 2010)
